Patent publication US20260315464A1, “COMPOSITIONS, METHODS, AND SYSTEMS FOR MODULATING SPLICING OF MSH3” (REVIR THERAPEUTICS, INC., priority 2023, published 2026)

Test system: MSH3
Assay: QPCR assay for levels of MSH3 upon compound treatment in HEK293T or AD293 cells (fold-change of MSH3 transcript, EC50 of MSH3 downregulation; total MSH3 exons 13/14, exons 20/21; Table 8)
Format: cell-based
Conditions: for mrna remaining at 1 µM / mrna remaining at 10 µM: Homo sapiens, fold-change of the MSH3 transcript, normalized to GAPDH; for mrna remaining at 1 µM: 1 μM compound; for mrna remaining at 10 µM: 10 μM compound; for EC50: EC50 of MSH3 downregulation, XtalPi
Method: HEK293T or AD293 cells were treated with Compound 274 at 1 μM and […]. RNA, cDNA and qPCR was prepared using TaqMan Cells-to-CT Express kit (ThermoFisher Scientific). Taqman assays (ThermoFisher Scientific) were used for quantification of total MSH3 exons 13/14 (cat #4351372, ID #: Hs00988993_ml), total MSH3 exons 20/21 (cat #4351372, ID #: Hs00989000_ml), exon 13/PE14A (Fwd: 5′-[…]; Rev: 5′-[…]; Probe: 5′-[…]) and exon 20/PE21A (Fwd: 5′-[…]; Rev: 5′-[…]; Probe: 5′-[…]) mRNA expression. Taqman GAPDH (cat #4448489, ID #: Hs02758991_g1) was used as a reference for data normalization.

Compound CC(C)(O)Cn1cc(-c2cc3c(cn2)CN(c2ccc(OC4CC(C)(C)NC(C)(C)C4)nn2)C3=O)cn1 [Compound 21, 6-(1-(2-hydroxy-2-methylpropyl)-1H-pyrazol-4-yl)-2-(6-((2,2,6,6-tetramethylpiperidin-4-yl)oxy)pyridazin-3-yl)-2,3-dihydro-1H-pyrrolo[3,4-c]pyridin-1-one] has a mrna remaining at 1 µM of 54% and a mrna remaining at 10 µM of 58%.
Work on Cc1nn(C)cc1-c1cc2c(cn1)CN(c1ccc(N(C)C3CC(C)(C)NC(C)(C)C3)nn1)C2=O [Compound 51, 6-(1,3-dimethyl-1H-pyrazol-4-yl)-2-(6-(methyl(2,2,6,6-tetramethylpiperidin-4-yl)amino)pyridazin-3-yl)-2,3-dihydro-1H-pyrrolo[3,4-c]pyridin-1-one] yielded a mrna remaining at 1 µM of 94% and a mrna remaining at 10 µM of 26%.
Work on Cc1nn(C)cc1-c1cc2c(cn1)CN(c1cnc(N(C)[C@H]3C[C@]4(C)CC[C@](C)(C3)N4)nn1)C2=O [Compound 55, 6-(1,3-dimethyl-1H-pyrazol-4-yl)-2-(3-(((1R,3s,5S)-1,5-dimethyl-8-azabicyclo[3.2.1]octan-3-yl)(methyl)amino)-1,2,4-triazin-6-yl)-2,3-dihydro-1H-pyrrolo[3,4-c]pyridin-1-one] yielded a mrna remaining at 1 µM of 56% and a mrna remaining at 10 µM of 20%.
Cc1nn(C)cc1-c1cc2c(cn1)CN(c1ccc(OC3CC(C)(C)NC4(CC4)C3)nn1)C2=O (centres unmarked) [Compound 59, 6-(1,3-dimethyl-1H-pyrazol-4-yl)-2-(6-((5,5-dimethyl-4-azaspiro[2.5]octan-7-yl)oxy)pyridazin-3-yl)-2,3-dihydro-1H-pyrrolo[3,4-c]pyridin-1-one] was tested, and the mrna remaining at 1 µM was 101% and the mrna remaining at 10 µM was 29%.
For CN(c1ccc(N2Cc3cnc(-c4cn(C)nc4C(F)(F)F)cc3C2=O)nn1)[C@H]1C[C@]2(C)CC[C@](C)(C1)N2 [Compound 61, 2-(6-(((1R,3s,5S)-1,5-dimethyl-8-azabicyclo[3.2.1]octan-3-yl)(methyl)amino)pyridazin-3-yl)-6-(1-methyl-3-(trifluoromethyl)-1H-pyrazol-4-yl)-2,3-dihydro-1H-pyrrolo[3,4-c]pyridin-1-one], the mrna remaining at 1 µM was 44% and the mrna remaining at 10 µM was 18%.
Compound Cc1nc(C)c(-c2cc3c(cn2)CN(c2ccc(N(C)[C@H]4C[C@]5(C)CC[C@](C)(C4)N5)nn2)C3=O)s1 [Compound 62, 2-(6-(((1R,3s,5S)-1,5-dimethyl-8-azabicyclo[3.2.1]octan-3-yl)(methyl)amino)pyridazin-3-yl)-6-(2,4-dimethylthiazol-5-yl)-2,3-dihydro-1H-pyrrolo[3,4-c]pyridin-1-one] has an EC50 of 690 nM, a mrna remaining at 1 µM of 18% and a mrna remaining at 10 µM of 8%.
For Cc1nc(C)c(-c2cc3c(cn2)CN(c2ccc(O[C@H]4C[C@]5(C)CC[C@](C)(C4)N5)nn2)C3=O)s1 [Compound 69, 2-(6-(((1R,3s,5S)-1,5-dimethyl-8-azabicyclo[3.2.1]octan-3-yl)oxy)pyridazin-3-yl)-6-(2,4-dimethylthiazol-5-yl)-2,3-dihydro-1H-pyrrolo[3,4-c]pyridin-1-one], the EC50 was 885 nM, the mrna remaining at 1 µM was 30% and the mrna remaining at 10 µM was 11%.
CN(c1ccc(N2Cc3cnc(-c4cnn(C)n4)cc3C2=O)nn1)[C@H]1C[C@]2(C)CC[C@](C)(C1)N2 [Compound 70, 2-(6-(((1R,3s,5S)-1,5-dimethyl-8-azabicyclo[3.2.1]octan-3-yl)(methyl)amino)pyridazin-3-yl)-6-(2-methyl-2H-1,2,3-triazol-4-yl)-2,3-dihydro-1H-pyrrolo[3,4-c]pyridin-1-one] showed a mrna remaining at 1 µM of 139% and a mrna remaining at 10 µM of 56%.
With CN(c1ncc(N2Cc3cnc(-c4cnn(C)n4)cc3C2=O)nn1)[C@H]1C[C@]2(C)CC[C@](C)(C1)N2 [Compound 73, 2-(3-(((1R,3s,5S)-1,5-dimethyl-8-azabicyclo[3.2.1]octan-3-yl)(methyl)amino)-1,2,4-triazin-6-yl)-6-(2-methyl-2H-1,2,3-triazol-4-yl)-2,3-dihydro-1H-pyrrolo[3,4-c]pyridin-1-one] the mrna remaining at 1 µM was 85% and the mrna remaining at 10 µM was 70%.
With Cn1cc(-c2cc3c(cn2)CN(c2ccc(O[C@H]4C[C@]5(C)CC[C@](C)(C4)N5)nn2)C3=O)c(C(F)(F)F)n1 [Compound 74, 2-(6-(((1R,3s,5S)-1,5-dimethyl-8-azabicyclo[3.2.1]octan-3-yl)oxy)pyridazin-3-yl)-6-(1-methyl-3-(trifluoromethyl)-1H-pyrazol-4-yl)-2,3-dihydro-1H-pyrrolo[3,4-c]pyridin-1-one] the mrna remaining at 1 µM was 96% and the mrna remaining at 10 µM was 33%.
Cc1nn(C)cc1-c1cc2c(cn1)CN(c1ccc(OC3CC(C)(C)NC(C)(C)C3)nn1)C2=O [Compound 76, 6-(1,3-dimethyl-1H-pyrazol-4-yl)-2-(6-((2,2,6,6-tetramethylpiperidin-4-yl)oxy)pyridazin-3-yl)-2,3-dihydro-1H-pyrrolo[3,4-c]pyridin-1-one] was tested, and the mrna remaining at 1 µM was 98% and the mrna remaining at 10 µM was 20%.
Work on Cc1nn(C)cc1-c1cc2c(cn1)CN(c1ccc(O[C@@H]3C[C@@]4(C)CC[C@](C)(N4)[C@@H]3F)nn1)C2=O [Compound 79, 6-(1,3-dimethyl-1H-pyrazol-4-yl)-2-(6-(((1S,2S,3R,5R)-2-fluoro-1,5-dimethyl-8-azabicyclo[3.2.1]octan-3-yl)oxy)pyridazin-3-yl)-2,3-dihydro-1H-pyrrolo[3,4-c]pyridin-1-one] yielded a mrna remaining at 1 µM of 92% and a mrna remaining at 10 µM of 31%.
Compound Cc1nn(C)cc1-c1cc2c(c(Cl)n1)CN(c1ccc(N(C)[C@H]3C[C@]4(C)CC[C@](C)(C3)N4)nn1)C2=O [Compound 90, 4-chloro-6-(1,3-dimethyl-1H-pyrazol-4-yl)-2-(6-(((1R,3s,5S)-1,5-dimethyl-8-azabicyclo[3.2.1]octan-3-yl)(methyl)amino)pyridazin-3-yl)-2,3-dihydro-1H-pyrrolo[3,4-c]pyridin-1-one] has a mrna remaining at 1 µM of 38% and a mrna remaining at 10 µM of 18%.
Cn1cc(-c2cc3c(cn2)CN(c2ccc(OC4CC(C)(C)NC(C)(C)C4)nn2)C3=O)c(F)n1 [Compound 91, 6-(3-fluoro-1-methyl-1H-pyrazol-4-yl)-2-(6-((2,2,6,6-tetramethylpiperidin-4-yl)oxy)pyridazin-3-yl)-2,3-dihydro-1H-pyrrolo[3,4-c]pyridin-1-one] was tested, and the mrna remaining at 1 µM was 85% and the mrna remaining at 10 µM was 74%.
Cc1nn(C)cc1-c1cc2c(c(Cl)n1)CN(c1ccc(O[C@H]3C[C@]4(C)CC[C@](C)(C3)N4)nn1)C2=O [Compound 93, 4-chloro-6-(1,3-dimethyl-1H-pyrazol-4-yl)-2-(6-(((1R,3s,5S)-1,5-dimethyl-8-azabicyclo[3.2.1]octan-3-yl)oxy)pyridazin-3-yl)-2,3-dihydro-1H-pyrrolo[3,4-c]pyridin-1-one] was tested, and the mrna remaining at 1 µM was 91% and the mrna remaining at 10 µM was 72%.
Cc1nn(C)cc1-c1cc2c(cn1)CN(c1ccc(O[C@H]3C[C@]4(C)CC[C@](C)(C3)N4C)nn1)C2=O [Compound 94, 6-(1,3-dimethyl-1H-pyrazol-4-yl)-2-(6-(((1R,3s,5S)-1,5,8-trimethyl-8-azabicyclo[3.2.1]octan-3-yl)oxy)pyridazin-3-yl)-2,3-dihydro-1H-pyrrolo[3,4-c]pyridin-1-one] was tested, and the mrna remaining at 1 µM was 106% and the mrna remaining at 10 µM was 79%.
Cc1nn(C)nc1-c1cc2c(cn1)CN(c1ccc(O[C@H]3C[C@]4(C)CC[C@](C)(C3)N4)nn1)C2=O [Compound 96, 6-(2,5-dimethyl-2H-1,2,3-triazol-4-yl)-2-(6-(((1R,3s,5S)-1,5-dimethyl-8-azabicyclo[3.2.1]octan-3-yl)oxy)pyridazin-3-yl)-2,3-dihydro-1H-pyrrolo[3,4-c]pyridin-1-one] was tested, and the mrna remaining at 1 µM was 79% and the mrna remaining at 10 µM was 119%.
CC[C@]12CC[C@](C)(C[C@@H](Oc3ccc(N4Cc5cnc(-c6cn(C)nc6C)cc5C4=O)nn3)C1)N2 [Compound 98, 6-(1,3-dimethyl-1H-pyrazol-4-yl)-2-(6-(((1S,3R,5R)-1-ethyl-5-methyl-8-azabicyclo[3.2.1]octan-3-yl)oxy)pyridazin-3-yl)-2,3-dihydro-1H-pyrrolo[3,4-c]pyridin-1-one] gave a mrna remaining at 1 µM of 83% and a mrna remaining at 10 µM of 25%.
In the case of Cn1cc(-c2cc3c(cn2)CN(c2ccc(O[C@H]4C[C@]5(C)CC[C@](C)(C4)N5)nn2)C3=O)cn1 [Compound 99, 2-(6-(((1R,3s,5S)-1,5-dimethyl-8-azabicyclo[3.2.1]octan-3-yl)oxy)pyridazin-3-yl)-6-(1-methyl-1H-pyrazol-4-yl)-2,3-dihydro-1H-pyrrolo[3,4-c]pyridin-1-one], the mrna remaining at 1 µM is reported as 90% and the mrna remaining at 10 µM is reported as 86%.
Compound CC[C@]12CC[C@](CC)(C[C@@H](Oc3ccc(N4Cc5cnc(-c6cn(C)nc6C)cc5C4=O)nn3)C1)N2 [Compound 100, 2-(6-(((1R,3s,5S)-1,5-diethyl-8-azabicyclo[3.2.1]octan-3-yl)oxy)pyridazin-3-yl)-6-(1,3-dimethyl-1H-pyrazol-4-yl)-2,3-dihydro-1H-pyrrolo[3,4-c]pyridin-1-one] has a mrna remaining at 1 µM of 65% and a mrna remaining at 10 µM of 11%.
Work on Cn1ncc(-c2cc3c(c(Cl)n2)CN(c2ccc(O[C@H]4C[C@]5(C)CC[C@](C)(C4)N5)nn2)C3=O)n1 [Compound 106, 4-chloro-2-(6-(((1R,3s,5S)-1,5-dimethyl-8-azabicyclo[3.2.1]octan-3-yl)oxy)pyridazin-3-yl)-6-(2-methyl-2H-1,2,3-triazol-4-yl)-2,3-dihydro-1H-pyrrolo[3,4-c]pyridin-1-one] yielded a mrna remaining at 1 µM of 121% and a mrna remaining at 10 µM of 130%.
